Several values for one entry are separate records, joined by “and”; a condition that tells them apart may be missing. Equal entries are not always repeated.
Columns and labels:
[1] = xn = mol fraction of the nth substance listed

C1CC[C@H]2CCCC[C@H]2C1
viscosity [mPa·s]
Settings	293.15 K	303.15 K	313.15 K	323.15 K
100 kPa	–	2.704	2.214	1.861
101 kPa	3.337	2.444	–	–
101.3 kPa	3.361	2.641	–	–

CC(CC(C)(C)C)CC(C)(C)CC(C)(C)C (stereo not given)
viscosity
Settings	293.15 K	298.15 K	303.15 K	313.15 K	323.15 K
100 kPa	3.64 mPa·s and 3.64 mPa·s and 3.782 mPa·s (2×)	–	2.984 mPa·s	2.43 mPa·s and 2.43 mPa·s and 2.411 mPa·s (2×)	2.01 mPa·s and 2.01 mPa·s and 2.018 mPa·s (2×)
101.33 kPa	–	3.343 mPa·s	–	–	–

CCCC(=O)O
viscosity
Settings	293.15 K	303.15 K	313.15 K	323.15 K
101 kPa	1.778 mPa·s and 1.54 mPa·s and 1.78 mPa·s	1.296 mPa·s and 1.331 mPa·s and 1.33 mPa·s	1.12 mPa·s	0.9885 mPa·s
101.33 kPa	1.623 mPa·s	–	1.184 mPa·s	–

CCCCCCCBr
101 kPa
Settings	viscosity [mPa·s]
293.15 K	1.205
303.15 K	1.05
313.15 K	0.925
323.15 K	0.82

CCCCCCn1cc[n+](C)c1C.O=S(=O)([N-]S(=O)(=O)C(F)(F)F)C(F)(F)F
100 kPa
Settings	viscosity [mPa·s]
293.15 K	172
298.15 K	129
303.15 K	99
308.15 K	78

CCCCNCCCC
viscosity
Settings	293.15 K	298.15 K	303.15 K	308.15 K	313.15 K	318.15 K	323.15 K
100 kPa	–	0.81 mPa·s	0.75 mPa·s	0.71 mPa·s	–	–	–
101 kPa	–	–	0.764 mPa·s and 0.7734 mPa·s	0.7184 mPa·s and 0.6757 mPa·s	0.6692 mPa·s	0.6249 mPa·s	0.5859 mPa·s
101.33 kPa	0.85 mPa·s	0.81 mPa·s	0.73 mPa·s	0.698 mPa·s	0.64 mPa·s	0.611 mPa·s	0.56 mPa·s

CCCC[N+](C)(CCCC)CCCC.N#C[N-]C#N
101 kPa
Settings	viscosity [mPa·s]
293.15 K	497.7
303.15 K	238.9
313.15 K	127.3
323.15 K	74.87

CCC[N+]1(C)CCCC1.O=S(=O)([N-]S(=O)(=O)C(F)(F)F)C(F)(F)F
viscosity [mPa·s]
Settings	293.15 K	298.15 K	303.15 K	308.15 K	313.15 K	318.15 K	323.15 K
101 kPa	–	–	–	–	34.4	–	–
101.3 kPa	76.4	61.2	49.8	41.1	34.4	29.2	25

COCCO
viscosity
Settings	293.15 K	298.15 K	303.15 K	308.15 K	313.15 K	318.15 K	323.15 K
100 kPa	–	1.649 mPa·s and 1.563 mPa·s	1.457 mPa·s	1.292 mPa·s	1.15 mPa·s and 1.188 mPa·s	–	–
101 kPa	1.78 mPa·s	–	–	–	–	–	0.931 mPa·s and 0.9856 mPa·s and 0.965 mPa·s
101.3 kPa	–	1.522 mPa·s and 1.695 mPa·s	1.381 mPa·s and 1.525 mPa·s and 1.376 mPa·s	1.242 mPa·s and 1.368 mPa·s	1.151 mPa·s and 1.155 mPa·s	–	0.9746 mPa·s
101.33 kPa	–	1.552 mPa·s	1.476 mPa·s	–	1.2 mPa·s and 1.189 mPa·s	1.098 mPa·s and 1.04 mPa·s and 1.042 mPa·s	–

C#CC(C)(C)O + O
viscosity [mPa·s], [1], 101.32 kPa
Settings	x1 = 0.1001	x1 = 0.2003	x1 = 0.3009	x1 = 0.4001	x1 = 0.5004	x1 = 0.602	x1 = 0.7044	x1 = 0.8017	x1 = 0.9005
308.15 K	1.612	2.02	2.2	2.289	2.308	2.297	2.254	2.21	2.152
313.15 K	1.403	1.78	1.92	1.973	1.986	1.968	1.928	1.898	1.838
318.15 K	1.24	1.56	1.67	1.7	1.719	1.712	1.669	1.643	1.582
323.15 K	1.105	1.369	1.45	1.483	1.498	1.486	1.449	1.424	1.376

C1CC[C@H]2CCCC[C@H]2C1 + O=C1CCCCC1
viscosity [mPa·s], [1], 101.3 kPa
Settings	293.15 K	303.15 K
x2 = 0.05	3.262	2.558
x2 = 0.1446	3.118	2.471
x2 = 0.2281	3.006	2.399
x2 = 0.35	2.863	2.302
x2 = 0.4482	2.767	2.231
x2 = 0.5559	2.68	2.159
x2 = 0.6271	2.634	2.115
x2 = 0.7252	2.586	2.06
x2 = 0.8051	2.56	2.019
x2 = 0.8571	2.549	1.995
x2 = 0.9322	2.543	1.964

C[N+](C)(C)C[C@H](O)CC(=O)[O-] + O=C1O[C@H]([C@@H](O)CO)C(O)=C1O
Settings	viscosity [mPa·s]
[1], 298.15 K, 101.33 kPa, x2 = 0.7	423.5

C[N+](C)(C)C[C@H](O)CC(=O)[O-] + O=C(O)CC(O)(CC(=O)O)C(=O)O
Settings	viscosity [mPa·s]
[1], 298.15 K, 101.33 kPa, x2 = 0.4	896.5

CCCC(=O)O + O=[N+]([O-])c1ccccc1
viscosity [mPa·s], [1], 101 kPa
Settings	x2 = 0.1103	x2 = 0.2181	x2 = 0.3235	x2 = 0.4266	x2 = 0.5274	x2 = 0.6259	x2 = 0.7225	x2 = 0.8169	x2 = 0.9094
298.15 K	1.829	1.83	1.837	1.841	1.837	1.82	1.786	1.732	1.653
308.15 K	1.531	1.564	1.59	1.604	1.603	1.582	1.539	1.473	1.381
318.15 K	1.355	1.458	1.527	1.56	1.559	1.523	1.455	1.354	1.22

— the CheMixHub viscosity set
